Source: US8822533B1, “Methods and compositions for repelling and/or killing insects” (The United States of America, as represented by the …, priority 2011, dated 2014)

Experiments:
[1] = system: bed bugs (Cimex lectularius); assay: Bed bug mortality on treated filter paper; format: in vivo; conditions: Cimex lectularius, 24 h
Protocol: Knockdown data and mortality for volatile pyrethroids against bed bugs (Cimex lectularius): Compounds were dissolved in acetone to yield concentrations of 100 μg/cm^2, 10 μg/cm^2, and 1 μg/cm^2 and 47 mm filter paper disks were treated. Acetone-treated filter paper was used as a negative control. Mixed stages (nymphs and adults) of a laboratory colony of the bed bug Cimex lectularius were placed on the treated filter paper in glass Petri dishes and mortality was recorded 24 h later, at which time bed bugs were removed to untreated surfaces. 24 h after this transfer another assessment of mortality was made to see if any dead or moribund bugs had recovered.

[2] = system: bed bugs (Cimex lectularius); assay: Bed bug mortality on treated filter paper; format: in vivo; conditions: 24 h
[3] = system: Mosquitoes, either Aedes aegypti (Liverpool) or Anopheles stephensi Liston; assay: K&D module in vitro bioassay: biting protection, knockdown and mortality; format: in vivo
Protocol: In vitro bioassays were conducted as described by Klun et. al. (Klun, J. A., et al., J. Med. Entomol., 40: 293-299 (2005)). Each test replicate consisted of 3 treatments: a control (EtOH); a standard (Deet, 4.54 nmol/μl); and an experimental compound (pyrethroid analogs, 4.54 nmol/ul). The 3 treatments were randomly assigned to consecutive cells in 2, 6-cell reservoirs connected in series to a single water-bath pump; thus, 4 replicates could be tested/run. Tests were performed in an Air Science USA hood, with an air movement velocity of approx. 110-120 ft./min., temperature of 25-27° C., and RH of 15-25%. A 6-celled reservoir was connected to and heated by a constant-temperature (38° C.) water circulator (Lauda E100, Wobser GMGH and Co., Konigshofell, Germany).
Prior to each test, the upper surface of each reservoir was coated with a thin layer of high-vacuum silicone grease (Dow Corning Corp., Midland, Mich.), and the cells then filled (approx. 6 ml. capacity) or topped-off with either: (1) expired human red blood cells suspended in citrate-phosphate-dextrose-adenine (CPDA) solution, not more than 1 month past expiration date, and to which 110 mg ATP/35 ml. blood-CPDA had been added on the day of testing; or (2) CPDA+ATP×^−3, usually made up or diluted to 10^−3 ATP on the day of testing. The filled cells were then covered with an Edicol collagen membrane (Devro, Sandy Run, S.C.) strip, and then with a just-treated (110 μl of 4.54 nmol/μl treatment or control solution) organdy cloth (G Street Fabrics, Rockville, Md.) strip. Mosquitoes used in tests were either Aedes aegypti_(Liverpool) or Anopheles stephensi_Liston. K&D modules containing 5 adult females/cell were placed over a Teflon separator atop each reservoir; the sliding floors opened allowing access to the treated organdy cloth and membrane-covered cell; and the number of mosquitoes biting (proboscis inserted through the cloth) and/or observed to be engorged within each cell at the end of a 3-5 min. exposure period was recorded. Mosquitoes were used only once in a test, and then frozen and discarded.
Only tests in which 3 or more females fed in the control cell were analyzed, as lower feeding rates are indicative of substandard feeding readiness of that group of mosquitoes.
[…] Data were collected to record knockdown in 6 minutes, one hour and 24 hours post exposure.

Ae. aegypti mosquitoes = assay: Sleeve bite protection assay on treated uniform fabric, mosquitoes; format: in vivo, Aedes aegypti (Orlando, 1952)
Protocol: Biological Evaluation: Bite protection assays were conducted with laboratory-reared 7-12 day old mosquitoes or sand flies. The species used throughout these studies are Aedes aegypti (Orlando, 1952) and Phlebotomus papatasi sand flies (Jerusalem, 1983). Females were pre-selected using either a hand draw box or a mechanical aspirator. An assay was conducted by wearing sewn sleeves made from clothing material. Treated specimens were assayed with untreated controls to correct for the bite resistance afforded by material construction and composition. The untreated control was tested at the beginning of the experiment, followed by successively higher candidate repellent concentrations on sleeves. Sleeves were sewn from a cut out single ply trapezoidal pattern (33.2 cm×21 cm×25.5 cm height) of material. […] Permethrin was 35:65cis: trans, 95.85% technical material. Experimental repellents were received as neat samples with <5% impurities. The treatment occurred by dissolution of repellent in suitable quantity of acetone to saturate the clothing, but minimizing excess solution. Excess solution was quantified and this amount of excess was then used to calculate the estimated amount of repellent applied to the material. […] The photoperiod was 12:12. The mosquito cages were approximately 60000 cm^3 and each contained 175 to 225 female mosquitoes. […] Cages for sand fly work were slightly smaller (15000 cm^3) and constructed of acrylic for filming purposes and with screens on the exterior edges to allow air flow through the system. About 20-40 sand flies were released in cages for each assay. Assays started when the sleeved arm was inserted through the sleeve into the cage. Normally the hand was protected by a glove, but there were situations (i.e. sand fly data presented here) when the ability of a repellent to protect the untreated hand was determined. The assay periods were 15 min for the mosquitoes and 25-30 minutes for sand flies. The insects were allowed to land, probe and possibly bloodfeed during this time. At the conclusion of the experiment, all insects were knocked down or aspirated and the percentage that bloodfed of the total female test population in the cage was recorded. The protect level was calculated by Abbott's formula as a percentage reduction in bites compared to the untreated fabric control sleeve. Specific conditions for bioassays are noted with corresponding data contained in the Tables.

[4] = ACU sleeve, stored one year then tested, concentrations as E1

CC(C)=C[C@@H]1[C@@H](C(=O)OCc2c(F)c(F)cc(F)c2F)C1(C)C [TL-I-107]
0%: mortality at 1 µg/cm2 [1]
100%: mortality at 10 µg/cm2 [1] | mortality at 100 µg/cm2 [1] | mortality at 5 µg/cm2 [2] | Knockdown 6 min (%) ([3]; 2.5 nM\cm^2, K&D module) | Knockdown 24 hours (%) ([3]; 2.5 nM\cm^2, K&D module) | Not feeding 3 minutes (%) ([3]; 2.5 nM\cm^2, K&D module) | Knockdown 1 hour (%) ([3]; 2.5 nmol/cm^2, K&D module) | Knockdown 6 min (%) ([3]; 25 nM\cm^2, K&D module) | Knockdown 24 hours (%) ([3]; 25 nM\cm^2, K&D module) | Not feeding 3 minutes (%) ([3]; 25 nM\cm^2, K&D module) | Knockdown 1 hour (%) ([3]; 25 nmol/cm^2, K&D module) | mortality at 0.0025 µM ([3]; Aedes aegypti, 24 h) | mortality at 0.025 µM ([3]; Aedes aegypti, 48 h) | Bite Protection (%) (Ae. aegypti mosquitoes; ACU (50/50 NYCO) sleeve, glove on hand, Abbott's formula vs untreated sleeve, concentrations as E1) | Bite Protection (%) (Ae. aegypti mosquitoes; [4])
0.0%: Fed (%) (Ae. aegypti mosquitoes; ACU (50/50 NYCO) sleeve, glove on hand, concentrations as E1) | Fed (%) (Ae. aegypti mosquitoes; [4])
0 #: Blood-fed # (Ae. aegypti mosquitoes; ACU (50/50 NYCO) sleeve, glove on hand, 15 min, permethrin 0.118, transfluthrin 0.108, TL-I-107 0.107, TL-I-141 0.109, TL-I-105 0.107, TL-I-73 0.102 mg/cm^2) | Blood-fed # (Ae. aegypti mosquitoes; ACU sleeve, treated specimens stored in refrigerator for one year then tested, concentrations as E1)
